Experimental data reported in US7833967B2, “Synthetic antimicrobial polypeptides” (priority 2003, dated 2010).

test system: E. coli TOP10; test: Suicide expression system (SES) growth inhibition; assay type: cell-based; details: Table 1; 0.1% inducer (arabinose), pBAD/gIIIA in E. coli TOP10, Bioscreen C 37° C., end point OD450 vs control vector

| Substance | Growth inhibition (%) |
| --- | --- |
| 1 (RRRPPRFPPRFPPRFPPRFPPRFPPRF; Synthetic antimicrobial peptide) [compound 1] | 48% |
| 2 (RRRPRFPPRFPPRFPPRFPPRFPPRFP; Synthetic antimicrobial peptide) [compound 2] | 45% |
| 3 (RRRRFPPRFPPRFPPRFPPRFPPRFPP; Synthetic antimicrobial peptide) [compound 3] | 43% |
| 4 (RRRFPPRFPPRFPPRFPPRFPPRFPPR; Synthetic antimicrobial peptide) [compound 4] | 46% |
| 5 (RRRPRPFPRPFPRPFPRPFPRPFPRPF; Synthetic antimicrobial peptide) [compound 5] | 57% |
| 6 (RRRRPFPRPFPRPFPRPFPRPFPRPFP; Synthetic antimicrobial peptide) [compound 6] | 57% |
| 7 (RRRPFPRPFPRPFPRPFPRPFPRPFPR; Synthetic antimicrobial peptide) [compound 7] | 39% |
| 8 (RRRFPRPFPRPFPRPFPRPFPRPFPRP; Synthetic antimicrobial peptide) [compound 8] | 38% |
| 9 (RRRPPFRPPFRPPFRPPFRPPFRPPFR; Synthetic antimicrobial peptide) [compound 9] | 67% |
| 10 (RRRPFRPPFRPPFRPPFRPPFRPPFRP; Synthetic antimicrobial peptide) [compound 10] | 78% |
| 11 (RRRFRPPFRPPFRPPFRPPFRPPFRPP; Synthetic antimicrobial peptide) [compound 11] | 73% |
| 12 (RRRRPPFRPPFRPPFRPPFRPPFRPPF; Synthetic antimicrobial peptide) [compound 12] | 76% |

same assay, conditions: Table 2; variants of SEQ ID NO:1, re-tested in the Bioscreen C

| Substance | Growth inhibition (%) |
| --- | --- |
| 13 (RRRPPRFPPRFPPRFPPRFPPRFPPRF; Synthetic antimicrobial peptide) [compound 13] | 51% |
| 14 (RRRPPRFPPRIPPRFPPRLPPRIPPRL; Synthetic antimicrobial peptide) [compound 14] | 90% |
| 15 (RRRPPRFPPRIPPRLPPRVPPRVPPRL; Synthetic antimicrobial peptide) [compound 15] | 57% |
| 16 (RRRPPRIPPRFPPRVPPRFPPRVPPRV; Synthetic antimicrobial peptide) [compound 16] | 98% |
| 17 (RRRPPRIPPRLPPRIPPRFPPRFPPRL; Synthetic antimicrobial peptide) [compound 17] | 95% |
| 18 (RRRPPRLPPRFPPRFPPRIPPRFPPRI; Synthetic antimicrobial peptide) [compound 18] | 99% |
| 19 (RRRPPRLPPRFPPRFPPRIPPRFPPRI; Synthetic antimicrobial peptide) [compound 19] | 78% |
| 20 (RRRPPRLPPRFPPRFPPRVPPRFPPRV; Synthetic antimicrobial peptide) [compound 20] | 86% |
| 21 (RRRPPRLPPRFPPRFPPRVPPRFPPRV; Synthetic antimicrobial peptide) [compound 21] | 86% |
| 22 (RRRPPRLPPRFPPRFPPRVPPRLPPRF; Synthetic antimicrobial peptide) [compound 22] | 81% |
| 23 (RRRPPRLPPRFPPRFPPRVPPRVPPRF; Synthetic antimicrobial peptide) [compound 23] | 82% |
| 24 (RRRPPRLPPRFPPRFPPRVPPRVPPRF; Synthetic antimicrobial peptide) [compound 24] | 90% |
| 25 (RRRPPRLPPRFPPRFPPRVPPRVPPRI; Synthetic antimicrobial peptide) [compound 25] | 81% |
| 26 (RRRPPRVPPRFPPRVPPRFPPRVPLRL; Synthetic antimicrobial peptide) [compound 26] | 86% |
| 27 (RRRPPRLPPRLPPRLPPRVPPRVPLVSNCSRTKTHLRRGSE; Synthetic antimicrobial peptide) [compound 27] | 90% |

same assay, conditions: Table 3; variants of SEQ ID NO:5, re-tested in the Bioscreen C

| Substance | Growth inhibition (%) |
| --- | --- |
| 28 (RRRPRPFPRPFPRPFPRPFPRPFPRPF; Synthetic antimicrobial peptide) [compound 28] | 57% |
| 29 (RRRPRLPRPFPRPVPRPLPRPVPRPI; Synthetic antimicrobial peptide) [compound 29] | 63% |
| 30 (RRRPRPFPPPFPRPIPRPFPRPFPRPL; Synthetic antimicrobial peptide) [compound 30] | 61% |
| 31 (RRRPRPFPRPFPHPFPRPFPRPIPRPI; Synthetic antimicrobial peptide) [compound 31] | 73% |
| 32 (RRRPRPFPRPFPHPIPRPLPRPFPRPI; Synthetic antimicrobial peptide) [compound 32] | 77% |
| 33 (RRRPRPFPRPFPRPFPRPFPRPFPRPF; Synthetic antimicrobial peptide) [compound 33] | 79% |
| 34 (RRRPRPFPRPFPRPFPRPFPRPFPRPL; Synthetic antimicrobial peptide) [compound 34] | 74% |
| 35 (RRRPRPFPRPFPRPFPRPFPRPIPRPF; Synthetic antimicrobial peptide) [compound 35] | 78% |
| 36 (RRRPRPFPRPFPRPFPRPFPRPIPRPI; Synthetic antimicrobial peptide) [compound 36] | 77% |
| 37 (RRRPRPFPRPFPRPFPRPIPRPFPRPV; Synthetic antimicrobial peptide) [compound 37] | 68% |
| 38 (RRRPRPFPRPFPRPFPRPIPRPVPRPI; Synthetic antimicrobial peptide) [compound 38] | 64% |
| 39 (RRRPRPFPRPFPRPFPRPLPRPFPRPF; Synthetic antimicrobial peptide) [compound 39] | 56% |
| 40 (RRRPRPFPRPFPRPFPRPVPRPLPRPI; Synthetic antimicrobial peptide) [compound 40] | 69% |
| 41 (RRRPRPFPRPFPRPFPRPVPRPLPRPV; Synthetic antimicrobial peptide) [compound 41] | 71% |
| 42 (RRRPRPFPRPFPRPIPRPFPRPLPRPI; Synthetic antimicrobial peptide) [compound 42] | 66% |
| 43 (RRRPRPFPRPFPRPIPRPFPRPVPRPV; Synthetic antimicrobial peptide) [compound 43] | 68% |
| 44 (RRRPRPFPRPFPRPLPRPFPRPVPRPF; Synthetic antimicrobial peptide) [compound 44] | 95% |
| 45 (RRRPRPFPRPFPRPLPRPIPRPFPRPV; Synthetic antimicrobial peptide) [compound 45] | 69% |

| Substance | Growth inhibition (%) |
| --- | --- |
| 46 (RRRPRPFPRPFPRPVPRPFPRPFPRPI; Synthetic antimicrobial peptide) [compound 46] | 84% |
| 47 (RRRPRPFPRPFPRPVPRPIPRPFPRPF; Synthetic antimicrobial peptide) [compound 47] | 92% |
| 48 (RRRPRPFPRPFPRPVPRPVPRPVPRPF; Synthetic antimicrobial peptide) [compound 48] | 59% |
| 49 (RRRPRPFPRPLPRPVPRPFPRPVPRPL; Synthetic antimicrobial peptide) [compound 49] | 51% |
| 50 (RRRPRPFPRPLPRPVPRPFPRPVPRPV; Synthetic antimicrobial peptide) [compound 50] | 69% |
| 51 (RRRPRPFPRPVPRPFPRPFPRPFPRPF; Synthetic antimicrobial peptide) [compound 51] | 77% |
| 52 (RRRPRPFPRPVPRPIPRPFPRPVPRPF; Synthetic antimicrobial peptide) [compound 52] | 53% |
| 53 (RRRPRPFPRPVPRPIPRPFPRPVPRPV; Synthetic antimicrobial peptide) [compound 53] | 62% |
| 54 (RRRPRPFPRPVPRPVPRPFPRPIPRPL; Synthetic antimicrobial peptide) [compound 54] | 65% |
| 55 (RRRPRPFPRPVPRPVPRPFPRPLPRPI; Synthetic antimicrobial peptide) [compound 55] | 63% |
| 56 (RRRPRPIPRPFPRPFPRPFPRPFPRPI; Synthetic antimicrobial peptide) [compound 56] | 51% |
| 57 (RRRPRPIPRPFPRPIPRPIPRPFPRPF; Synthetic antimicrobial peptide) [compound 57] | 73% |
| 58 (RRRPRPIPRPFPRPIPRPVPRPFPRPF; Synthetic antimicrobial peptide) [compound 58] | 77% |
| 59 (RRRPRPIPRPFPRPIPRPVPRPFPRPF; Synthetic antimicrobial peptide) [compound 59] | 75% |
| 60 (RRRPRPIPRPFPRPVPRPVPRPFPRPF; Synthetic antimicrobial peptide) [compound 60] | 70% |
| 61 (RRRPRPVPRPFPRPVPRPLPRPFPRPF; Synthetic antimicrobial peptide) [compound 61] | 97% |
| 62 (RRRPRPIPRPIPRPFPRPFPRPFHAQSNCSRTKTHLRRGSE; Synthetic antimicrobial peptide) [compound 62] | 77% |
| 63 (RRRPRPFPRPFPRPVPRPFPRPFPRQSNCSRTKTHLRRGSE; Synthetic antimicrobial peptide) [compound 63] | 80% |

same assay, conditions: Table 4; variants of SEQ ID NO:10, re-tested in the Bioscreen C

| Substance | Growth inhibition (%) |
| --- | --- |
| 64 (RRRPFRPPFRPPFRPPFRPPFRPPFRP; Synthetic antimicrobial peptide) [compound 64] | 82% |
| 65 (RRRPLRPPLRPPVRPPVRPPFRPPFRP; Synthetic antimicrobial peptide) [compound 65] | 89% |
